These results are taken from publication PMC6152231, “Anti-Inflammatory Triterpene Glycosides from the Roots of Ilex dunniana Levl” (Molecules : A Journal of Synthetic Chemistry and Natural …, 2017).

SMILES strings stand for the structures.

Data set [1] concerns LPS-induced NO production in mouse BV2 microglial cells. Kind of data set: inhibition of LPS-induced NO production (Griess). Type of data set: cell-based. As to conditions: BV-2, LPS 1 μg/mL, 24 h, n = 3, read-out: IC50 against LPS-induced NO production. The protocol: BV2 microglial cells were maintained in RPMI1640 medium at 37 °C in 5% CO2. The cells were placed in 48-well plates and preincubated for 24 h, treated with tested triterpene glycosides dissolved in DMSO at various final concentrations (5.0, 10.0, 20.0, 40.0, 80.0 μM) in triplicate for 1 h, and continuously incubated with LPS (1 μg/mL) for 24 h. Dexamethasone (10^−6 M) was used as the positive control. From each well, the supernatants (100 μL) were mixed with an equal amount of Griess reagent at room temperature for 20 min. The concentration of NO2^− was measured for the amount of NO by a microplate reader at 570 nm, using sodium nitrite as the standard to calculate the concentration of the nitrite.
For orientation: Griess reagent forms a coloured azo dye with nitrite.

The subject of data set [2] is BV2 microglial cells. Description: cytotoxicity, MTT assay. Type of data set: cell-based, mouse. As to conditions: for Cell Viability: 24 h, BV2 microglial cells, n = 3, in % (unit assumed). The protocol: Cell viabilities were measured using the MTT assay. Briefly, BV2 microglial cells were seeded in 96-well plates at concentrations of 1 × 10^5 cells per well. After incubation for 2 h, the cells were incubated with compounds for 24 h and then washed with PBS three times. Following the washing step, 200 μL of RPMI 1640 medium containing 0.5 mg/mL MTT were added to each well, the cells were then incubated at 37 °C for another 4 h. Finally, the culture medium was removed, and the formazan crystal was dissolved by adding 150 μL of DMSO. Absorbances at 570 nm were measured using a microplate reader.
(In general: Tetrazolium assays rely on reduction of a dye to a coloured formazan, in cell work by metabolically active cells.)

The subject of data set [3] is ear edema induced by croton oil in mice. Description: croton oil-induced ear edema in mice. Type of data set: in vivo. As to conditions: ICR male mice, dose 1.0 mg/kg, positive control.
Method: On the basis of the inhibition of croton oil-induced ear edema in mice, the topical anti-inflammatory activity of the test compounds was evaluated. Animal experiments were performed in accordance to the Institutional Guidelines for Animal Care and Use of the Chinese Academy of Medical Sciences and Peking Union Medical College. The protocol was approved by the Committee on the Ethics of Animal Experiments of the Chinese Academy of Medical Sciences and Peking Union Medical College (permit pumber: 002973).The croton oil (Croton tiglium L., seed oil) was purchased from Sigma-Aldrich (St. Louis, MO, USA). In ICR male mice (18–20 g, n = 10 per group), croton oil (0.4 mg) was mixed with acetone (1 mL) to be applied to the left ear (10 μL each side) topically to induce ear edema. The animals were administered with candidate extracts (50 mg/kg) for 1 h, followed by treatment with croton oil for 4 h. […] Based on the weight difference between two plugs (8 mm diameter) of the treated (left) and untreated (right) ears, the edematous response was measured. The percentage reduction in edema in treated mice compared with control mice is calculated for the expression of anti-inflammatory activity.

Regarding `C[C@H]1CC[C@]2(C(=O)O[C@@H]3O[C@H](CO)[C@@H](O)[C@H](O)[C@H]3O)CC[C@]3(C)C(=CCC4[C@@]5(C)CC[C@H](O[C@@H]6OC[C@H](O)[C@H](OS(=O)(=O)O)[C@H]6O)C(C)(C)C5CC[C@]43C)C2[C@]1(C)O` (stereo partly drawn) [Compound 4, ilexpublesnin H], the 50% inhibitory concentration (IC50) (in general, the concentration needed to halve the response being measured) in data set [1] came to 33.5 ± 2.11 µM. Further, the “Cell Viability” value worked out at 99.36 ± 1.31 in data set [2] (5.0 μM); 99.37 ± 1.21 in data set [2] (10.0 μM); 99.67 ± 1.32 in data set [2] (20.0 μM); 99.57 ± 1.53 in data set [2] (40.0 μM); 99.33 ± 1.30 in data set [2] (80.0 μM).
Regarding `C[C@@H]1CC[C@]2(C(=O)O[C@@H]3O[C@H](CO)[C@@H](O)[C@H](O)[C@H]3O)CC[C@]3(C)C(=CCC4[C@@]5(C)CC[C@H](OS(=O)(=O)[O-])[C@](C)(CO)C5CC[C@]43C)[C@@H]2[C@]1(C)O.[Na+]` (stereo partly drawn) [Compound 6, ilexoside XXXV], the IC50 in data set [1] was found to be 22.3 ± 2.23 µM. Further, the “Cell Viability” value came to 102.21 ± 1.03 in data set [2] (5.0 μM); 102.28 ± 1.56 in data set [2] (10.0 μM); 103.35 ± 1.58 in data set [2] (20.0 μM); 103.26 ± 1.28 in data set [2] (40.0 μM); 103.22 ± 1.89 in data set [2] (80.0 μM).
As for `C[C@@H]1C[C@H]2[C@@H]3CCC4=CC(=O)C=C[C@]4(C)[C@@]3(F)[C@@H](O)C[C@]2(C)[C@@]1(O)C(=O)CO` [Dexamethasone, reference compound], in data set [3], the “Edema Degree” value is listed as 5.80 ± 0.90 mg. Also, in data set [3] (ear edema vs control group), the “Inhibitation Rate” value is given as 71.0%. Also, in data set [1], the IC50 was 0.03 µM. In addition, the “Cell Viability” value in data set [2] (5.0 μM) turned out to be 101.02 ± 1.01; in data set [2] (10.0 μM), 99.98 ± 1.32; in data set [2] (20.0 μM), 100.25 ± 1.67; in data set [2] (40.0 μM) it was 101.37 ± 1.83; in data set [2] (80.0 μM), 99.78 ± 1.63.
For `C[C@H]1CC[C@]2(C(=O)O[C@@H]3O[C@H](CO)[C@@H](O)[C@H](O)[C@H]3O)CC[C@]3(C)C(=CCC4[C@@]5(C)CC[C@H](O[C@@H]6OC[C@@H](O)[C@H](O)[C@H]6OS(=O)(=O)O)C(C)(C)C5CC[C@]43C)C2[C@]1(C)O` (stereo partly drawn) [Compound 5, ilexpublesnin I], the IC50 in data set [1] stood at 50.7 ± 3.25 µM. Also, the “Cell Viability” value in data set [2] (5.0 μM) stood at 98.21 ± 1.93; in data set [2] (10.0 μM), 99.33 ± 1.54; in data set [2] (20.0 μM), 99.32 ± 1.32; in data set [2] (40.0 μM) it was 99.21 ± 1.66; in data set [2] (80.0 μM), 99.13 ± 1.28.
With `CCCCOC(=O)C1OC(OC2CCC3(C)C(CCC4(C)C3CC=C3C5C(C(=O)OC6OC(CO)C(O)C(O)C6O)(CCC(C)C5(C)O)CCC34C)C2(C)C)C(O)C(O)C1O` [Compound 1, 3β-(6-O-n-butyl-D-glucuronopyranosyl)-19α-hydroxy-urs-12-en-28-oic acid 28-O-β-D-glucopyranoside], the IC50 in data set [1] is 11.6 ± 0.89 µM. Further, the “Cell Viability” value in data set [2] (5.0 μM) was found to be 99.74 ± 1.21; in data set [2] (10.0 μM), 99.28 ± 1.32; in data set [2] (20.0 μM), 99.35 ± 1.26; in data set [2] (40.0 μM), 99.62 ± 1.89; in data set [2] (80.0 μM), 99.70 ± 1.36.
For `C=C1CC[C@]2(C(=O)O[C@@H]3O[C@H](CO)[C@@H](O)[C@H](O)[C@H]3O[C@@H]3O[C@@H](C)[C@H](O)[C@@H](O)[C@H]3O)CC[C@]3(C)C(=CC[C@@H]4[C@@]5(C)CC[C@H](O[C@@H]6OC[C@H](O)[C@H](O[C@@H]7O[C@H](CO)[C@@H](O)[C@H](O)[C@H]7O[C@@H]7O[C@H](CO)[C@@H](O)[C@H](O)[C@H]7O)[C@H]6O[C@@H]6O[C@@H](C)[C@H](O)[C@@H](O)[C@H]6O)C(C)(C)[C@@H]5CC[C@]43C)[C@@H]2[C@]1(C)O` [Compound 7, ilekudinoside F], in data set [1], the IC50 came out at 55.2 ± 3.26 µM. Besides, the “Cell Viability” value in data set [2] (5.0 μM) was 101.55 ± 1.42; in data set [2] (10.0 μM), 101.68 ± 1.36; in data set [2] (20.0 μM) it was 101.76 ± 1.47; in data set [2] (40.0 μM), 101.38 ± 1.58; in data set [2] (80.0 μM), 101.68 ± 1.38.
For the compound `C[C@@H]1CC[C@]2(C(=O)O[C@@H]3O[C@H](CO)[C@@H](O)[C@H](O)[C@H]3O)CC[C@]3(C)C(=CCC4[C@@]5(C)CC[C@H](O[C@@H]6O[C@H](CO)[C@@H](O)[C@H](O)[C@H]6O[C@@H]6O[C@H](CO)[C@@H](O[C@@H]7O[C@H](CO)[C@@H](O)[C@H](O)[C@H]7O)[C@H](O)[C@H]6O)C(C)(C)C5CC[C@]43C)[C@@H]2[C@]1(C)O` (stereo partly drawn) [Compound 3, hylonoside II], the IC50 in data set [1] worked out at 9.7 ± 0.86 µM. Further, the “Cell Viability” value in data set [2] (5.0 μM) stood at 91.74 ± 1.11; in data set [2] (10.0 μM) it was 90.28 ± 1.82; in data set [2] (20.0 μM), 89.35 ± 1.35; in data set [2] (40.0 μM), 88.62 ± 1.21; in data set [2] (80.0 μM), 88.50 ± 1.32. The “cytotoxic activity against microglial cell, in words” value in data set [2] (BV2 microglial cells in vitro) is on record as “showed cytotoxic activity”.
As to `CCCCOC(=O)C1OC(OC2CCC3(C)C(CCC4(C)C3CC=C3C5C(C(=O)OC6OC(CO)C(O)C(O)C6O)(CCC(C)C5(C)O)CCC34C)C2(C)C)C(O)C(OS(=O)(=O)O)C1O` [Compound 2, 3β-(3-O-sulphonyl-6-O-n-butyl-D-glucuronopyranosyl)-19α-hydroxy-urs-12-en-28-oic acid 28-O-β-D-glucopyranoside], the IC50 in data set [1] was determined as 12.3 ± 1.21 µM. In addition, the “Cell Viability” value in data set [2] (5.0 μM) amounted to 98.32 ± 2.05; in data set [2] (10.0 μM), 98.25 ± 1.87; in data set [2] (20.0 μM) it was 98.16 ± 1.25; in data set [2] (40.0 μM), 98.56 ± 1.37; in data set [2] (80.0 μM) it was 98.26 ± 1.88.
